Measurements from ChEMBL document CHEMBL1123782, “6-Alkoxy-N,N-disubstituted-2-pyridinamines as anticonvulsant agents” (1987).

How the values were obtained:
Assay type in all cases: functional
Mus musculus [1] = assay: Anticonvulsant activity expressed as minimum effective dose (MED) against tonic extension produced by maximal electroshock (MES) at 30 min post administration in mice; conditions: 0.5 h, read-out: MED
Mus musculus [2] = assay: Anticonvulsant activity expressed as minimum ataxic dose (MAD) at which mice fell off inverted screen at 30 min post administration
Rattus norvegicus [3] = assay: Anticonvulsant activity was determined in rat (administered perorally) tested for 0.5 hours using maximal electroshock test; conditions: po
Mus musculus [4] = assay: Anticonvulsant activity was determined in mouse (administered perorally) tested for 1 hour using rotarod ataxia test (ADD program); conditions: po
Mus musculus [5] = assay: Anticonvulsant activity was determined in mouse (administered intraperitoneally) for 0.5 hours using maximal electroshock test; conditions: ip
Mus musculus [6] = assay: Anticonvulsant activity was determined in mouse (administered perorally) for 0.5 hours using maximal electroshock test (ADD) program; conditions: po
Mus musculus [7] = assay: Anticonvulsant activity was determined in mouse (administered intraperitoneally) for 0.5 hours using inverted wire mesh ataxia test; conditions: ip
Mus musculus [8] = assay: Anticonvulsant activity was determined in mouse (administered intraperitoneally) tested for 0.5 hours using maximal electroshock test; conditions: ip
Mus musculus [9] = assay: Anticonvulsant activity was determined in mouse (administered perorally) tested for 1 hour using maximal electroshock test; conditions: po
Mus musculus [10] = assay: Anticonvulsant activity was determined in mouse (administered intraperitoneally) for 0.5 hours using rotarod ataxia test (ADD program); conditions: ip
Mus musculus [11] = assay: Anticonvulsant activity was determined in mouse (administered intraperitoneally) tested for 0.5 hours using rotarod ataxia test (ADD program); conditions: ip
Mus musculus [12] = assay: Anticonvulsant activity was determined in mouse (administered perorally) tested for 0.5 hours using inverted wire mesh ataxia test; conditions: po
Mus musculus [13] = assay: Anticonvulsant activity was determined in mouse (administered intraperitoneally) for 0.5 hours using maximal electroshock test (ADD program); conditions: ip
Mus musculus [14] = assay: Anticonvulsant activity was determined in mouse (administered intraperitoneally) tested for 0.5 hours using inverted wire mesh ataxia test; conditions: ip
Mus musculus [15] = assay: Anticonvulsant activity was determined in mouse (administered intraperitoneally) tested for 0.5 hours using maximal electroshock test (ADD program); conditions: ip
Rattus norvegicus [16] = assay: Anticonvulsant activity was determined in rat (administered perorally) tested for 4 hours using ataxia test; conditions: po
Mus musculus [17] = assay: Anticonvulsant activity was determined in mouse (administered perorally) tested for 0.5 hours using maximal electroshock test (ADD program); conditions: po
Mus musculus [18] = assay: Anticonvulsant activity was determined in mouse (administered perorally) tested for 2.0 hours using maximal electroshock test; conditions: po
Mus musculus [19] = assay: Anticonvulsant activity was determined in mouse (administered intraperitoneally) tested for 2.0 hours using maximal electric shock test (ADD program); conditions: ip
Mus musculus [20] = assay: Anticonvulsant activity was determined in mouse (administered perorally) tested for 2.0 hours using inverted wire mesh ataxia test; conditions: po
Mus musculus [21] = assay: Anticonvulsant activity was determined in mouse (administered intraperitoneally) tested for 2.0 hours using rotarod ataxia test (ADD program); conditions: ip
Mus musculus [22] = assay: Anticonvulsant activity was determined in mouse (administered intraperitoneally) tested for 2.0 hours using maximal electroshock test (ADD program); conditions: ip
Mus musculus [23] = assay: Anticonvulsant activity was determined in mouse (administered perorally) tested for 2.0 hours using maximal electric shock test (ADD program); conditions: po
Mus musculus [24] = assay: Anticonvulsant activity was determined in mouse (administered intraperitoneally) tested for 2.0 hours using inverted wire mesh ataxia test; conditions: ip
Mus musculus [25] = assay: Anticonvulsant activity was determined in mouse (administered intraperitoneally) tested for 2.0 hours using electroshock test; conditions: ip
Mus musculus [26] = assay: Anticonvulsant activity was determined in mouse administered perorally tested for 2.0 hours using maximal electric shock test; conditions: po
Mus musculus [27] = assay: Anticonvulsant activity was determined in mouse (administered intraperitoneally) tested for 2.0 hours using maximal electroshock test.; conditions: ip
Mus musculus [28] = assay: Anticonvulsant activity was determined in mouse (administered perorally) tested for 2.0 hours using rotarod ataxia test (ADD program); conditions: po

SMILES: Oc1cccc(N2CCNCC2)n1
- minimal effective dose (Mus musculus [1]): > 300 mg/kg
- MAD (Mus musculus [2]): >300 mg/kg

SMILES: COc1cccc(N2CCNCC2)n1
- minimal effective dose (Mus musculus [1]): 30 mg/kg
- MAD (Mus musculus [2]): 10 mg/kg

SMILES: CC(C)COc1cccc(NCCN(C)C)n1
- minimal effective dose (Mus musculus [1]): 100 mg/kg
- MAD (Mus musculus [2]): 300 mg/kg

SMILES: CC(C)COc1cccc(N2CCNCC2)n1
- minimal effective dose (Mus musculus [1]): 10 mg/kg
- ED10 (Rattus norvegicus [3]): 6.6 mg/kg
- ED50 (Rattus norvegicus [3]): 36 mg/kg
- ED90 (Rattus norvegicus [3]): 195 mg/kg
- ED10 (Mus musculus [4]): 115 mg/kg
- ED50 (Mus musculus [4]): 139 mg/kg
- ED90 (Mus musculus [4]): 164 mg/kg
- ED50 (Mus musculus [5]): 7.5 mg/kg
- ED50 (Mus musculus [6]): 19 mg/kg
- ED50 (Mus musculus [7]): 16 mg/kg
- ED10 (Mus musculus [8]): 5.4 mg/kg
- ED90 (Mus musculus [8]): 10.7 mg/kg
- ED10 (Mus musculus [9]): 7.6 mg/kg
- ED50 (Mus musculus [9]): 11.1 mg/kg
- ED90 (Mus musculus [9]): 17 mg/kg
- ED50 (Mus musculus [10]): 46 mg/kg
- ED10 (Mus musculus [11]): 30 mg/kg
- ED90 (Mus musculus [11]): 69 mg/kg
- ED10 (Mus musculus [12]): 11 mg/kg
- ED50 (Mus musculus [12]): 35 mg/kg
- ED90 (Mus musculus [12]): 114 mg/kg
- MAD (Mus musculus [2]): 30 mg/kg
- ED50 (Mus musculus [13]): 7.5 mg/kg
- ED10 (Mus musculus [14]): 6.6 mg/kg
- ED90 (Mus musculus [14]): 39 mg/kg
- ED10 (Mus musculus [15]): 5 mg/kg
- ED90 (Mus musculus [15]): 11.2 mg/kg
- ED10 (Rattus norvegicus [16]): 340 mg/kg
- ED50 (Rattus norvegicus [16]): 525 mg/kg
- ED90 (Rattus norvegicus [16]): 830 mg/kg
- ED10 (Mus musculus [17]): 10.7 mg/kg
- ED90 (Mus musculus [17]): 35 mg/kg

SMILES: c1cc(OCC2CC2)nc(N2CCNCC2)c1
- minimal effective dose (Mus musculus [1]): 10 mg/kg
- MAD (Mus musculus [2]): 10 mg/kg

SMILES: CC(C)COc1cccc(N2CCCCC2)n1
- minimal effective dose (Mus musculus [1]): > 300 mg/kg
- MAD (Mus musculus [2]): >300 mg/kg

SMILES: CC(C)Oc1cccc(N2CCNCC2)n1
- minimal effective dose (Mus musculus [1]): 30 mg/kg
- MAD (Mus musculus [2]): <10 mg/kg

SMILES: CCOc1cccc(N2CCNCC2)n1
- minimal effective dose (Mus musculus [1]): 30 mg/kg
- MAD (Mus musculus [2]): 10 mg/kg

SMILES: c1cc(OCC2CCCCC2)nc(N2CCNCC2)c1
- minimal effective dose (Mus musculus [1]): 30 mg/kg
- MAD (Mus musculus [2]): 30 mg/kg

SMILES: CC(C)COc1cccc(N2CCOCC2)n1
- minimal effective dose (Mus musculus [1]): 300 mg/kg
- MAD (Mus musculus [2]): 300 mg/kg

SMILES: c1cc(OC2CCCCC2)nc(N2CCNCC2)c1
- minimal effective dose (Mus musculus [1]): 30 mg/kg
- MAD (Mus musculus [2]): 10 mg/kg

SMILES: CN(C)CCOc1cccc(N2CCNCC2)n1
- minimal effective dose (Mus musculus [1]): > 300 mg/kg
- MAD (Mus musculus [2]): >300 mg/kg

SMILES: CC(C)COc1cccc(N2CCCNCC2)n1
- minimal effective dose (Mus musculus [1]): 30 mg/kg
- MAD (Mus musculus [2]): 100 mg/kg

SMILES: O=C1NC(=O)C(c2ccccc2)(c2ccccc2)N1 [PHENYTOIN]
- ED50 (Rattus norvegicus [3]): 33 mg/kg
- ED10 (Mus musculus [18]): 4.9 mg/kg
- ED90 (Mus musculus [18]): 14 mg/kg
- ED90 (Mus musculus [19]): 13 mg/kg
- ED10 (Mus musculus [20]): 50 mg/kg
- ED50 (Mus musculus [20]): 78 mg/kg
- ED90 (Mus musculus [20]): 125 mg/kg
- ED10 (Mus musculus [21]): 60 mg/kg
- ED50 (Mus musculus [21]): 71 mg/kg
- ED90 (Mus musculus [21]): 86 mg/kg
- ED10 (Mus musculus [22]): 8.4 mg/kg
- ED50 (Mus musculus [22]): 10.4 mg/kg
- ED50 (Mus musculus [23]): 9.8 mg/kg
- ED10 (Mus musculus [24]): 33 mg/kg
- ED50 (Mus musculus [24]): 45 mg/kg
- ED90 (Mus musculus [24]): 63 mg/kg
- ED50 (Mus musculus [25]): 7.4 mg/kg
- ED50 (Mus musculus [26]): 8.3 mg/kg
- ED10 (Mus musculus [27]): 3.7 mg/kg
- ED90 (Mus musculus [27]): 15 mg/kg
- ED50 (Rattus norvegicus [16]): > 3000 mg/kg
- ED50 (Mus musculus [28]): 95 mg/kg

SMILES: CC(C)COc1cccc(N2CCN(C)CC2)n1
- minimal effective dose (Mus musculus [1]): 30 mg/kg
- MAD (Mus musculus [2]): 30 mg/kg
